From PMC12466706 (Antioxidants, 2025)
Where two headings read alike, the source gives them in different places.

Columns and labels:
DENV [1] = assay: microbe, parasite or virus in culture; type: cell-based, Dengue virus (DENV-2 16681 strain)
DENV [2] = assay: microbe, parasite or virus in culture; type: cell-based, Dengue virus (DENV-2 16681 strain); conditions: for EC50: read-out: Replication EC50
[3] = system: pBR322 supercoiled plasmid DNA; type: biochemical, Escherichia coli; also: test concentration or dose not given here
[4] = not given; remark: listed apart in the source
DENV [5] = assay: microbe, parasite or virus in culture; type: cell-based, Dengue virus (DENV-2 16681 strain); remark: listed apart in the source
YFV = assay: microbe, parasite or virus in culture; type: cell-based, Yellow fever virus (YFV-17D); conditions: read-out: EC50 against YFV replication
Huh7 cells = conditions: human
in vitro = conditions: human
[6] = Dengue virus, Huh-7, 72 h, read-out: Infectivity EC50
[7] = Dengue virus, Huh-7, read-out: Infectivity EC50
[8] = Dengue virus, 72 h, read-out: Entry + Replicaion EC50
[9] = Dengue virus, Huh-7, 72 h, read-out: Entry + Replication EC50

With `O=C(O)/C=C/c1ccc(O)c(O)c1` [Caffeic acid, caffeic acid] the EC50 (DENV [1]; [6]) was 51.5 ± 1.19 µM, the EC50 (DENV [1]; [7]) was 4.63 µg/mL and the “DPPH scavenging activity IC50” value was 6.37 µg/mL. For the same compound, the EC50 (DENV [2]; Dengue virus, Huh-7, 72 h) was 35.9 ± 1.88 µM, the “inhibition of DNA strand breakage” value [3] was 98.98% and the “ABTS radical scavenging activity IC50” value [4] was 1.28 µg/mL. For the same compound, the EC50 (DENV [5]; [8]) was over 4.5 µg/mL, the EC50 (DENV [5]; [9]) was over 100 µM and the EC50 (YFV; Yellow fever virus, 72 h) was over 100 µM.
In the case of `O=C(O)/C=C/c1ccc(O)cc1` [Coumaric acid, coumaric acid], the EC50 (DENV [1]; [6]) is reported as 91.64 ± 0.4 µM, the EC50 (DENV [1]; [7]) is reported as 15 µg/mL and the “DPPH scavenging activity IC50” value is reported as 21.17 µg/mL. The EC50 (DENV [2]; Dengue virus, Huh-7, 72 h) was over 100 µM, the EC50 (DENV [2]; Dengue virus) was over 16.4 µg/mL and the “inhibition of DNA strand breakage” value [3] was 89.85%. The “ABTS radical scavenging activity IC50” value [4] was 4.00 µg/mL, the EC50 (DENV [5]; [8]) was 7.87 µg/mL and the EC50 (DENV [5]; [9]) was 48 ± 2.43 µM. The EC50 (YFV; Yellow fever virus, 72 h) was 154 ± 29.8 µM.
In the case of `COc1cc(/C=C/C(=O)O)ccc1O` [Ferulic acid, ferulic acid], the “Infectivity EC50” value (DENV [1]) is reported as over 19.41 µg/mL, the EC50 (DENV [1]; read-out: Infectivity EC50) is reported as over 100 µM and the “DPPH scavenging activity IC50” value is reported as 10.14 µg/mL. The “Replication EC50” value (DENV [2]) was over 19.41 µg/mL, the EC50 (DENV [2]) was over 100 µM and the “inhibition of DNA strand breakage” value [3] was 94.17%. For the same compound, the “ABTS radical scavenging activity IC50” value [4] was 2.51 µg/mL, the “Entry + Replicaion EC50” value (DENV [5]) was over 19.41 µg/mL and the EC50 (DENV [5]; read-out: Entry + Replication EC50) was over 100 µM. The EC50 (YFV) was over 100 µM.
`O=c1c(O)c(-c2ccc(O)cc2)oc2cc(O)cc(O)c12` [Kaempferol, kaempferol] gave an EC50 (DENV [1]; [6]) of 3.55 ± 0.07 µM, an EC50 (DENV [1]; [7]) of 0.25 µg/mL and a CC50 (Huh7 cells) of over 6.466 µg/mL. For the same compound, the “DPPH scavenging activity IC50” value was 7.40 µg/mL, the CC50 (in vitro) was 90.4 µM and the EC50 (DENV [2]; Dengue virus, Huh-7, 72 h) was 31.5 ± 6.39 µM. The “inhibition of DNA strand breakage” value [3] was 97.34%, the “ABTS radical scavenging activity IC50” value [4] was 1.84 µg/mL and the EC50 (DENV [5]; [8]) was 2.53 µg/mL. For the same compound, the EC50 (DENV [5]; [9]) was 35.5 ± 4.09 µM and the EC50 (YFV; Yellow fever virus, 72 h) was over 50 µM.
In the case of `O=c1cc(-c2ccc(O)c(O)c2)oc2cc(O)cc(O)c12` [Luteolin, luteolin], the EC50 (DENV [1]; [6]) is reported as over 100 µM, the EC50 (DENV [1]; [7]) is reported as over 28.6 µg/mL and the “DPPH scavenging activity IC50” value is reported as 9.48 µg/mL. For the same compound, the EC50 (DENV [2]; Dengue virus, Huh-7, 72 h) was 107 ± 1.82 µM, the EC50 (DENV [2]; Dengue virus) was 30.7 µg/mL and the “inhibition of DNA strand breakage” value [3] was 95.87%. The “ABTS radical scavenging activity IC50” value [4] was 2.20 µg/mL, the EC50 (DENV [5]; [8]) was 20.8 µg/mL and the EC50 (DENV [5]; [9]) was 72.7 ± 7.76 µM. For the same compound, the EC50 (YFV; Yellow fever virus, 72 h) was over 100 µM.
For `O=C1C[C@@H](c2ccc(O)cc2)Oc2cc(O)cc(O)c21` [Naringenin, naringenin], the EC50 (DENV [1]; [6]) was over 100 µM, the EC50 (DENV [1]; [7]) was over 27.2 µg/mL and the “DPPH scavenging activity IC50” value was 17.45 µg/mL. For the same compound, the EC50 (DENV [2]; Dengue virus, Huh-7, 72 h) was over 100 µM, the EC50 (DENV [2]; Dengue virus) was over 27.2 µg/mL and the “inhibition of DNA strand breakage” value [3] was 92.03%. The “ABTS radical scavenging activity IC50” value [4] was 3.37 µg/mL, the EC50 (DENV [5]; [8]) was 28.5 µg/mL and the EC50 (DENV [5]; [9]) was over 100 µM. It also gave an EC50 (YFV; Yellow fever virus, 72 h) of 102 ± 34.4 µM.
For `O=c1c(O)c(-c2ccc(O)c(O)c2)oc2cc(O)cc(O)c12` [Quercetin, quercetin], the EC50 (DENV [1]; [6]) was 104 ± 1.49 µM, the EC50 (DENV [1]; [7]) was 31.4 µg/mL and the “DPPH scavenging activity IC50” value was 8.05 µg/mL. For the same compound, the EC50 (DENV [2]; Dengue virus, Huh-7, 72 h) was 58.5 ± 7.08 µM, the EC50 (DENV [2]; Dengue virus) was 17.7 µg/mL and the “inhibition of DNA strand breakage” value [3] was 96.52%. For the same compound, the “ABTS radical scavenging activity IC50” value [4] was 1.93 µg/mL, the EC50 (DENV [5]; [8]) was 32.1 µg/mL and the EC50 (DENV [5]; [9]) was 109 ± 17.6 µM. The EC50 (YFV; Yellow fever virus, 72 h) was over 100 µM.
For `O=C(/C=C/c1ccc(O)c(O)c1)O[C@H](Cc1ccc(O)c(O)c1)C(=O)O` [Rosmarinic acid, rosmarinic acid], the EC50 (DENV [1]; [6]) was 37.1 ± 0.94 µM, the EC50 (DENV [1]; [7]) was 13.4 µg/mL and the “DPPH scavenging activity IC50” value was 12.28 µg/mL. The CC50 (in vitro) was over 500 µM, the EC50 (DENV [2]; Dengue virus, Huh-7, 72 h) was 76.2 ± 7.92 µM and the EC50 (DENV [2]; Dengue virus) was 27.4 µg/mL. The “inhibition of DNA strand breakage” value [3] was 93.12%, the “ABTS radical scavenging activity IC50” value [4] was 3.05 µg/mL and the EC50 (DENV [5]; [8]) was 25.6 µg/mL. It also gave an EC50 (DENV [5]; [9]) of 70.9 ± 9.1 µM and an EC50 (YFV; Yellow fever virus, 72 h) of 98 ± 21 µM.
In the case of `C[C@@H]1O[C@@H](OC[C@H]2O[C@@H](Oc3c(-c4ccc(O)c(O)c4)oc4cc(O)cc(O)c4c3=O)[C@H](O)[C@@H](O)[C@@H]2O)[C@H](O)[C@H](O)[C@H]1O` [Rutin, rutin], the EC50 (DENV [1]; [6]) is reported as over 100 µM, the EC50 (DENV [1]; [7]) is reported as over 61 µg/mL and the “DPPH scavenging activity IC50” value is reported as 21.86 µg/mL. The CC50 (in vitro) was over 500 µM, the EC50 (DENV [2]; Dengue virus, Huh-7, 72 h) was over 100 µM and the EC50 (DENV [2]; Dengue virus) was over 61 µg/mL. For the same compound, the “inhibition of DNA strand breakage” value [3] was 88.60%, the “ABTS radical scavenging activity IC50” value [4] was 4.54 µg/mL and the EC50 (DENV [5]; [8]) was over 61 µg/mL. It also gave an EC50 (DENV [5]; [9]) of over 100 µM and an EC50 (YFV; Yellow fever virus, 72 h) of over 100 µM.
